≈ marks a conversion by molar mass, not a printed value.
How the values were obtained:
Assay in all cases: Broth dilution MIC
Format in all cases: cell-based
CNS GC 4537 = conditions: CNS GC 4537; Mueller-Hinton broth, 18 hours at 35° C.; read-out: Antimicrobial Activity (MIC)
Description: (§1) The in vitro antibacterial activity of Example 1 through Example 20 is determined against a spectrum of Gram-positive and Gram-negative bacteria by a standard broth dilution method. Serial dilution of the compounds are made in Mueller-Hinton broth and inoculated with a bacterial suspension. The lowest concentration of compound that inhibited the growth of a bacterial strain after 18 hours of incubation at 35° C. is reported as the minimal inhibitory concentration (MIC) for that strain.

E. cloacae GC 3783 = conditions: Enterobacter cloacae, GC3783; E. cloacae GC 3783; Mueller-Hinton broth, 18 hours at 35° C.; read-out: Antimicrobial Activity (MIC)
Description: as §1

E. faecalis GC 4555 = conditions: Enterococcus faecalis, GC4555; E. faecalis GC 4555; Mueller-Hinton broth, 18 hours at 35° C.; read-out: Antimicrobial Activity (MIC)
Description: as §1

E. coli GC 4559 = conditions: Escherichia coli, GC4559; E. coli GC 4559; Mueller-Hinton broth, 18 hours at 35° C.; read-out: Antimicrobial Activity (MIC)
Description: as §1

E. coli GC 3226 = conditions: Escherichia coli, GC3226; E. coli GC 3226; Mueller-Hinton broth, 18 hours at 35° C.; read-out: Antimicrobial Activity (MIC)
Description: as §1

CNS GC 4547 = conditions: CNS GC 4547; Mueller-Hinton broth, 18 hours at 35° C.; read-out: Antimicrobial Activity (MIC)
Description: as §1

K. pneumoniae GC 4534 = conditions: Klebsiella pneumoniae, GC4534; K. pneumoniae GC 4534; Mueller-Hinton broth, 18 hours at 35° C.; read-out: Antimicrobial Activity (MIC)
Description: as §1

P. aeruginosa GC 4532 = conditions: Pseudomonas aeruginosa, GC4532; P. aeruginosa GC 4532; Mueller-Hinton broth, 18 hours at 35° C.; read-out: Antimicrobial Activity (MIC)
Description: as §1

CNS GC 4538 = conditions: CNS GC 4538; Mueller-Hinton broth, 18 hours at 35° C.; read-out: Antimicrobial Activity (MIC)
Description: as §1

S. aureus GC 1131 = conditions: Staphylococcus aureus, GC1131; S. aureus GC 1131; Mueller-Hinton broth, 18 hours at 35° C.; read-out: Antimicrobial Activity (MIC)
Description: as §1

S. aureus GC 4536 = conditions: Staphylococcus aureus, GC4536; S. aureus GC 4536; Mueller-Hinton broth, 18 hours at 35° C.; read-out: Antimicrobial Activity (MIC)
Description: as §1

P. aeruginosa GC 2214 = conditions: Pseudomonas aeruginosa, GC2214; P. aeruginosa GC 2214; Mueller-Hinton broth, 18 hours at 35° C.; read-out: Antimicrobial Activity (MIC)
Description: as §1

S. aureus GC 2216 = conditions: Staphylococcus aureus, GC2216; S. aureus GC 2216; Mueller-Hinton broth, 18 hours at 35° C.; read-out: Antimicrobial Activity (MIC)
Description: as §1

P. rettgeri GC 4530 = conditions: Providencia rettgeri, GC4530; P. rettgeri GC 4530; Mueller-Hinton broth, 18 hours at 35° C.; read-out: Antimicrobial Activity (MIC)
Description: as §1

E. faecalis GC 2242 = conditions: Enterococcus faecalis, GC2242; E. faecalis GC 2242; Mueller-Hinton broth, 18 hours at 35° C.; read-out: Antimicrobial Activity (MIC)
Description: as §1

M. morganii GC 4531 = conditions: Morganella morganii, GC4531; M. morganii GC 4531; Mueller-Hinton broth, 18 hours at 35° C.; read-out: Antimicrobial Activity (MIC)
Description: as §1

E. coli GC 2203 = conditions: Escherichia coli, GC2203; E. coli GC 2203; Mueller-Hinton broth, 18 hours at 35° C.; read-out: Antimicrobial Activity (MIC)
Description: as §1

E. coli GC 4560 = conditions: Escherichia coli, GC4560, 18 h, read-out: Antimicrobial Activity (MIC)
Description: as §1

E. faecalis GC 842 = conditions: Enterococcus faecalis, GC842; E. faecalis GC 842; Mueller-Hinton broth, 18 hours at 35° C.; read-out: Antimicrobial Activity (MIC)
Description: as §1

S. marcescens GC 4077 = conditions: Serratia marcescens, GC4077; S. marcescens GC 4077; Mueller-Hinton broth, 18 hours at 35° C.; read-out: Antimicrobial Activity (MIC)
Description: as §1

| Structure (SMILES) | MIC (CNS GC 4537) [µg/mL] | MIC (E. cloacae GC 3783) [µg/mL] | MIC (E. faecalis GC 4555) [µg/mL] | MIC (E. coli GC 4559) [µg/mL] | MIC (E. coli GC 3226) [µg/mL] | MIC (CNS GC 4547) [µg/mL] | MIC (K. pneumoniae GC 4534) [µg/mL] | MIC (P. aeruginosa GC 4532) [µg/mL] | MIC (CNS GC 4538) [µg/mL] | MIC (S. aureus GC 1131) [µg/mL] | MIC (S. aureus GC 4536) [µg/mL] | MIC (P. aeruginosa GC 2214) [µg/mL] | MIC (S. aureus GC 2216) [µg/mL] | MIC (P. rettgeri GC 4530) [µg/mL] | MIC (E. faecalis GC 2242) [µg/mL] | MIC (M. morganii GC 4531) [µg/mL] | MIC (E. coli GC 2203) [µg/mL] | MIC (E. coli GC 4560) [µg/mL] | MIC (E. faecalis GC 842) [µg/mL] | MIC (S. marcescens GC 4077) [µg/mL] |
| --- | --- | --- | --- | --- | --- | --- | --- | --- | --- | --- | --- | --- | --- | --- | --- | --- | --- | --- | --- | --- |
| CO[C@H]1C(O[C@H](C(C(=O)O)N(CCCCCCCCCCCC[N+]2(C)CCOCC2)CCCNC(=O)C(NC(=O)C(NC(=O)NC(C(=O)O)C(C)C)C2CCNC(=N)N2)C(O)C(C)C)[C@H]2O[C@@H](n3ccc(=O)[nH]c3=O)[C@H](O)[C@@H]2O)O[C@H](CN)[C@@H]1O (stereo partly drawn) [Example 10, 4-[13-((2R)-2-{[(3R,4S,5R)-5-(Aminomethyl)-4-hydroxy-3-methoxytetrahydro-2-furanyl]oxy}-1-carboxy-2-{(2S,3S,4R,5R)-5-[2,4-dioxo-3,4-dihydro-1 (2H)-pyrimidinyl]-3,4-dihydroxytetrahydro-2-furanyl}ethyl)-26-carboxy-19-(1-hydroxy-2-methylpropyl)-22-(2-iminohexahydro-4-pyrimidinyl) -27-methyl-18,21,24-trioxo-13,17,20,23,25-pentaazaoctacos-1-yl]-4-methylmorpholin-4-ium] | > 32 | > 32 | > 32 | > 32 | > 32 | > 32 | > 32 | > 32 | > 32 | > 32 | > 32 | > 32 | > 32 | > 32 | > 32 | > 32 | > 32 | 16 | > 32 | > 32 |
| CCCCCCCCCCCCCCCCNC(=O)NC[C@H]1OC(O[C@H](C(NCCCNC(=O)C(NC(=O)C(NC(=O)NC(C(=O)O)C(C)C)C2CCNC(=N)N2)C(O)C(C)C)C(=O)O)[C@H]2O[C@@H](n3ccc(=O)[nH]c3=O)[C@H](O)[C@@H]2O)[C@H](OC)[C@H]1O (stereo partly drawn) [Example 16, 16-((R)-{(2S,3S,4R,5R)-5-[2,4-Dioxo-3,4-dihydro-1 (2H)-pyrimidinyl]-3,4-dihydroxytetrahydro-2-furanyl}{[(3R,4S,5R)-5-({[(hexadecylamino)carbonyl]amino}methyl)-4-hydroxy-3-methoxytetrahydro-2-furanyl]oxy}methyl)-9-(1-hydroxy-2-methylpropyl)-6-(2-iminohexahydro-4-pyrimidinyl)-2-isopropyl-4,7,10-trioxo-3,5,8,11,15-pentaazaheptadecane-1,17-dioic Acid] | > 32 | > 32 | > 32 | > 32 | > 32 | > 32 | > 32 | > 32 | > 32 | > 32 | > 32 | > 32 | > 32 | > 32 | > 32 | > 32 | > 32 | > 32 | > 32 | > 32 |
| CO[C@H]1C(O[C@H](C(NCCCNC(=O)C(NC(=O)C(NC(=O)NC(C(=O)O)C(C)C)C2CCNC(=N)N2)C(O)C(C)C)C(=O)O)[C@H]2O[C@@H](n3ccc(=O)[nH]c3=O)[C@H](O)[C@@H]2O)O[C@H](CNCc2ccccc2)[C@@H]1O (stereo partly drawn) [Example 20A, 16-((R)-({(3R,4S,5R)-5-[(Benzylamino)methyl]-4-hydroxy-3-methoxytetrahydro-2-furanyl}oxy){(2S,3S,4R,5R)-5-[2,4-dioxo-3,4-dihydro-1 (2H)-pyrimidinyl]-3,4-dihydroxytetrahydro-2-furanyl}methyl)-9-(1-hydroxy-2-methylpropyl)-6-(2-iminohexahydro-4-pyrimidinyl)-2-isopropyl-4,7,10-trioxo-3,5,8,11,15-pentaazaheptadecane-1,17-dioic acid] | > 32 | > 32 | > 32 | > 32 | > 32 | > 32 | > 32 | > 32 | > 32 | > 32 | > 32 | > 32 | > 32 | > 32 | > 32 | > 32 | > 32 | > 32 | > 32 | > 32 |
| CCCCCN1C(=O)C([C@@H](OC2O[C@H](CN)[C@H](O)[C@H]2OC)[C@H]2O[C@@H](n3ccc(=O)[nH]c3=O)[C@H](O)[C@@H]2O)N(CCCNC(=O)C(NC(=O)C(NC(=O)NC(C(=O)O)C(C)C)C2CCNC(=N)N2)C(O)C(C)C)C1=O (stereo partly drawn) [Example 2, 14-[5-((R)-{[(3R,4S,5R)-5-(Aminomethyl)-4-hydroxy-3-methoxytetrahydro-2furanyl]oxy}{(2S,3S,4R,5R)-5-[2,4-dioxo-3,4-dihydro-1 (2H)-pyrimidinyl]-3,4-dihydroxytetrahydro-2-furanyl}methyl)-2,4-dioxo-3-pentyl-1-imidazolidinyl]-9-(1-hydroxy-2-methylpropyl)-6-(2-iminohexahydro-4-pyrimidinyl)-2-isopropyl-4,7,10-trioxo-3,5,8,11-tetraazatetradecan-1-oic acid] | > 32 | > 32 | > 32 | > 32 | > 32 | > 32 | > 32 | > 32 | > 32 | > 32 | > 32 | > 32 | > 32 | > 32 | > 32 | > 32 | > 32 | 32 (≈ 30.7 µM) | > 32 | > 32 |
| CO[C@H]1C(O[C@H](C(NCCCNC(=O)C(NC(=O)C(NC(=O)NC(C(=O)O)C(C)C)C2CCNC(=N)N2)C(O)C(C)C)C(=O)O)[C@H]2O[C@@H](n3ccc(=O)[nH]c3=O)[C@H](O)[C@@H]2O)O[C@H](CNCc2ccc(-c3ccccc3)cc2)[C@@H]1O (stereo partly drawn) [Example 19A, 16-((R)-[((3R,4S,5R)-5-{[([1,1′-Biphenyl]-4-ylmethyl)amino]methyl}-4-hydroxy-3-methoxytetrahydro-2-furanyl)oxy]{(2S,3S,4R,5R)-5-[2,4-dioxo-3,4-dihydro-1 (2H)-pyrimidinyl]-3,4-dihydroxytetrahydro-2-furanyl}methyl)-9-(1-hydroxy-2-methylpropyl)-6-(2-iminohexahydro-4-pyrimidinyl)-2-isopropyl-4,7,10-trioxo-3,5,8,11,15-pentaazaheptadecane-1,17-dioic Acid] | > 32 | > 32 | > 32 | > 32 | > 32 | > 32 | > 32 | > 32 | > 32 | > 32 | > 32 | > 32 | > 32 | > 32 | > 32 | > 32 | > 32 | 16 (≈ 14.4 µM) | > 32 | > 32 |

From patent publication US6727232B2, “Nucleoside peptide antibiotics of AA-896” (Wyeth Holdings Corporation, priority 2001, dated 2004)
